Source: US20200010482A1, “INHIBITORS OF BETA SECRETASE” (Janssen Pharmaceutica NV, priority 2017, published 2020)

Assays:
BACE2 = molecular target: T1, BACE2 (Homo sapiens, UniProt Q9Y5Z0); experiment: BACE2 biochemical FRET based assay; conditions: recombinant BACE2 0.4 μg/ml, 10 μM substrate, 450 min, pH 5.0; for IC50: read-out: BIOCHEMICAL FRET BASED ASSAY pIC50 (converted)
T1 construct: recombinant BACE2 protein in a final concentration of 0.4 μg/ml
T1 sequence (Q9Y5Z0 63-518): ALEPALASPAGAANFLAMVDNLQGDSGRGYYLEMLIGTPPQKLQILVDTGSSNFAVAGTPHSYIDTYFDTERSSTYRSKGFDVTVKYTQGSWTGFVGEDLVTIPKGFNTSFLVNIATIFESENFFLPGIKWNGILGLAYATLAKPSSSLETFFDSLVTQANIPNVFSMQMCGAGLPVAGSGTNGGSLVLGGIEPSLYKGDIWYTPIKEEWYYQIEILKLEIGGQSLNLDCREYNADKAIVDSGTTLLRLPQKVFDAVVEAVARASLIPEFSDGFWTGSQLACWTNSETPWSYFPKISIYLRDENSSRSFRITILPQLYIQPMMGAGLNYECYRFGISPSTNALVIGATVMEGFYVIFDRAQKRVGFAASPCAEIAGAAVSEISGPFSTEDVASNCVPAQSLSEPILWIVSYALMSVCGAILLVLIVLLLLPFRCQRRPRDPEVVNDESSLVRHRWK
Procedure, shortened: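 Recombinant enzyme (0.4 μg/ml final) incubated 450 min at room temperature with 10 μM Mca/Dnp-quenched Swedish-mutant APP peptide in 50 mM citrate pH 5.0, 0.05% PEG, no DMSO. Fluorescence (ex 320/em 405 nm) change from T0 to T450 normalised to no-enzyme and enzyme controls; IC50 from least-squares curve fit.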

[1] = tested on: Abeta 1-42 produced and secreted by SKNBE2 cells expressing hAPP695; experiment: Cellular αLisa assay in SKNBE2 cells, Abeta 1-42; assay type: cell-based, human; conditions: SKNBE2 cells expressing hAPP695, 18 hours incubation; for IC50: Homo sapiens, SKNBE2, 18 h, read-out: CELLULAR αLISA ASSAY IN SKNBE2 CELLS ABETA 42 PIC50 (converted)
Procedure, shortened: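 Human neuroblastoma SKNBE2 cells expressing wild-type hAPP695 treated with compound for 18 h; secreted Abeta total or Abeta 1-42 in medium measured by sandwich αLisa (AbN/25 with Ab4G8 or cAb42/26), read after 1 h. IC50 from least-squares fit of % Controlmin, normalised to untreated and no-antibody controls.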

[2] = tested on: Abeta total produced and secreted by SKNBE2 cells expressing hAPP695; experiment: Cellular αLisa assay in SKNBE2 cells, Abeta total; assay type: cell-based, human; conditions: SKNBE2 cells expressing hAPP695, 18 hours incubation; for IC50: Homo sapiens, SKNBE2, 18 h, read-out: CELLULAR αLISA ASSAY IN SKNBE2 CELLS ABETA TOTAL pIC50 (converted)
Procedure: In two αLisa assays the levels of Abeta total and Abeta 1-42 produced and secreted into the medium of human neuroblastoma SKNBE2 cells are quantified. The assay is based on the human neuroblastoma SKNBE2 expressing the wild type Amyloid Precursor Protein (hAPP695). The compounds are diluted and added to these cells, incubated for 18 hours and then measurements of Abeta 1-42 and Abeta total are taken. Abeta total and Abeta 1-42 are measured by sandwich αLisa. αLisa is a sandwich assay using biotinylated antibody AbN/25 attached to streptavidin coated beads and antibody Ab4G8 or cAb42/26 conjugated acceptor beads for the detection of Abeta total and Abeta 1-42 respectively. In the presence of Abeta total or Abeta 1-42, the beads come into close proximity. The excitation of the donor beads provokes the release of singlet oxygen molecules that trigger a cascade of energy transfer in the acceptor beads, resulting in light emission. Light emission is measured after 1 hour incubation (excitation at […] and emission at 615 nm).
A best-fit curve is fitted by a minimum sum of squares method to the plot of % Controlmin versus compound concentration. From this an IC50 value (inhibitory concentration causing 50% inhibition of activity) can be obtained. • LC=Median of the low control values=Low control: cells preincubated without compound, without biotinylated Ab in the αLisa • HC=Median of the High control values=High Control: cells preincubated without compound
% Effect=100−[(sample−LC)/(HC−LC)*100]
% Control=(sample/HC)*100
% Controlmin=(sample−LC)/(HC−LC)*100

BACE1 = molecular target: T2, BACE1 (Homo sapiens, UniProt P56817); experiment: BACE1 biochemical FRET based assay; conditions: recombinant BACE1 0.04 μg/ml, 20 μM substrate, 450 min, pH 5.0; for IC50: read-out: BIOCHEMICAL FRET BASED ASSAY pIC50 (converted)
T2 construct: recombinant BACE1 protein in a final concentration of 0.04 μg/ml
Procedure, shortened: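 Recombinant BACE1 (0.04 μg/ml final) incubated 450 min at room temperature with 20 μM Mca/Dnp-labelled 13-mer Swedish APP peptide in 50 mM citrate pH 5.0, 0.05% PEG. Fluorescence (ex 320/em 405 nm) at 450 min minus early baseline Tx; IC50 fitted from % Controlmin versus concentration.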

T2 sequence (P56817 46-501): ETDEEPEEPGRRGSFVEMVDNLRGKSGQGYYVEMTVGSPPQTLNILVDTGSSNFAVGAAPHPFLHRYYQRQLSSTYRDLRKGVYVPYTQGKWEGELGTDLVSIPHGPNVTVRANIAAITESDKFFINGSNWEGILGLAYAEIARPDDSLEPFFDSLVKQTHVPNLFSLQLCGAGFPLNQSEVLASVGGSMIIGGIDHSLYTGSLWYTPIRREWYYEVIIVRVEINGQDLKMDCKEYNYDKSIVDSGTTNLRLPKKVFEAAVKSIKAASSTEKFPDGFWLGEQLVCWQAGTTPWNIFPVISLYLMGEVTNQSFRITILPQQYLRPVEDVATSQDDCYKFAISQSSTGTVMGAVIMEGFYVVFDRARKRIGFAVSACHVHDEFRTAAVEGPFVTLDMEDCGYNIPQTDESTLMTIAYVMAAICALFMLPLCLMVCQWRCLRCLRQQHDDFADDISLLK

Structure (SMILES)	BIOCHEMICAL FRET BASED ASSAY pIC50 (BACE2)	CELLULAR αLISA ASSAY IN SKNBE2 CELLS ABETA 42 PIC50 [1]	CELLULAR αLISA ASSAY IN SKNBE2 CELLS ABETA TOTAL pIC50 [2]	BIOCHEMICAL FRET BASED ASSAY pIC50 (BACE1)	IC50 (BACE2) [µM]	IC50 [1] [nM]	IC50 [2] [nM]	IC50 (BACE1) [µM]
COc1ncc(Oc2ccccn2)c2c1C[C@]1(c3ccc(F)cc3F)N=C(N)SC[C@@H]1C2 [Compound 135]	7.55	7.6	7.62	7.6	–	–	–	–
COc1ncc(Br)c2c1C[C@]1(c3cc(Oc4ccccn4)ccc3F)N=C(N)SC[C@@H]1C2 [Compound 137]	7.72	7.74	7.82	7.97	–	–	–	–
COc1nccc2c1C[C@@]1(c3ccc(F)cc3F)N=C(N)SC[C@H]1C2 [Compound 182]	–	–	–	–	6.17	1290	1320	4.79
COc1nccc2c1C[C@@]1(c3cc(O)ccc3F)N=C(N)SC[C@H]1C2 [Compound 183]	–	–	–	–	6.92	3090	3470	4.47
COc1ncc(-c2cnccc2C)c2c1C[C@@]1(c3cc(-c4cncnc4)ccc3F)N=C(N)SC[C@H]1C2 [Compound 193]	<5	6.01	5.9	5.26	–	–	–	–
